Assay results taken from PubChem BioAssay (NCI).
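These data come from cells grown in 96-well plates and exposed to compound for 48 hours at five concentrations. GI50 = concentration required for 50% inhibition of growth. TGI marks complete inhibition of growth.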

How the values were obtained:
Experiment in all cases: DTP human tumour cell line panel, 48 h
[1] = test system: SF-539 CNS
[2] = test system: COLO 205 colon
[3] = test system: BT-549 breast
[4] = test system: PC-3 prostate
[5] = test system: M14 melanoma
[6] = test system: IGROV1 ovarian
[7] = test system: HS 578T breast
[8] = test system: SR leukemia
[9] = test system: SF-268 CNS
[10] = test system: K-562 leukemia

Row | Structure (SMILES) | GI50 [1] [µM] | TGI [1] [µM] | GI50 [2] [µM] | TGI [2] [µM] | GI50 [3] [µM] | TGI [3] [µM] | GI50 [4] [µM] | TGI [4] [µM] | GI50 [5] [µM] | TGI [5] [µM] | GI50 [6] [µM] | TGI [6] [µM] | GI50 [7] [µM] | TGI [7] [µM] | GI50 [8] [µM] | TGI [8] [µM] | GI50 [9] [µM] | TGI [9] [µM] | GI50 [10] [µM] | TGI [10] [µM]
1 | CN1CCN(Cc2ccc(NC(=O)c3cncc(C#Cc4cncc5[nH]ncc45)c3)cc2C(F)(F)F)CC1 | 0.411 | 1.28 | 0.192 | 3.56 | 1.39 | 5.58 | 1.14 | 5.68 | 0.157 | 0.706 | 0.454 | 1.45 | 0.523 | 2.45 | 1.04 | 10.7 | 0.899 | 3.96 | 0.005 | 1.64
2 | N#CSc1cc(-c2nc3ccccc3o2)ccc1N | 22.4 | 45.3 | 40.5 | > 100 | 23.8 | > 60.9 | 12.5 | 81.6 | 26.2 | 80.4 | 27.2 | > 70.1 | 11.3 | 63.6 | 0.203 | > 100 | 22.6 | 83.4 | 2.55 | > 89.3
3 | C=C1C(=O)O[C@H]2[C@H]1CC/C(COC(=O)c1ccc(Br)cc1)=C\CC[C@@]1(C)O[C@@H]21 | 1.5 | 2.88 | 1.79 | 3.51 | 1.3 | 3.01 | 1.69 | 3.19 | 1.47 | 3.2 | 1.27 | 2.83 | 2.51 | 7.64 | 0.343 | 4.75 | 1.55 | 3.14 | 1.2 | 10.3
4 | CCCCOc1nc2ccccc2cc1C1CNC(=O)c2ccccc2N1 (stereo not given) | 2.3 | 6.86 | 2.39 | 5.63 | 4.17 | 23.2 | 2.95 | 13.9 | 1.53 | 9.03 | 4.63 | 22.9 | 2.63 | 19 | 1.13 | 12.5 | 4.24 | > 48.5 | 1.26 | 14.2
5 | COc1ccc(C2C3=C(COC3=O)N(CCO)c3cc4c(cc32)CCC4)cc1OC (stereo not given) | 0.496 | 6.43 | 0.533 | 7.71 | 3.42 | > 50 | 0.524 | > 50 | 0.542 | > 11.8 | 0.274 | > 42.7 | 0.454 | > 15 | 0.253 | > 50 | 1.78 | > 50 | 0.47 | > 50
6 | CCN1CCN(c2nc(NNC(=O)c3cccc(OC)c3)nc(N3CCN(C(c4ccccc4)c4ccccc4)CC3)n2)CC1 | 1.65 | 3 | 2.22 | 5.55 | 2.65 | 9.81 | 2.24 | 13.4 | 1.67 | 3.31 | 1.89 | 4.34 | 1.89 | 4.43 | 0.926 | 3.81 | 1.95 | 4.2 | 2.79 | > 100
7 | CCn1c(-c2nonc2N)nc2c(C#CC(C)(C)O)ncc(OCC3CCNCC3)c21 | 3.36 | > 20.7 | 4.84 | 15.2 | 11 | > 25 | 7.48 | > 25 | 13.4 | > 25 | 1.34 | > 25 | 3.83 | 15.4 | 8.08 | 24.4 | 9.41 | > 25 | > 25 | > 25
8 | COc1ccc2c(c1)/C(=N/OC(C)=O)c1c-2c(Nc2ccc(/C(C)=N/OC(C)=O)cc2)nc2ccccc12 | > 100 | > 100 | > 100 | > 100 | > 100 | > 100 | 18.8 | 38.4 | 68.9 | > 100 | 71.6 | > 100 | 66 | > 100 | 87.6 | > 100 | 37.7 | > 100 | 40.4 | > 100
9 | O=[N+]([O-])C1(CO)COC2(OC1)c1ccccc1-c1ccccc12 |  | > 85.6 |  | > 82.4 |  | > 88.2 |  | > 100 |  | > 88.4 |  | > 100 |  | > 100 |  | 82.1 |  | > 93.2 |  | > 87
10 | Fc1ccc(-c2ncn(C3CCNCC3)c2-c2ccnc(Oc3ccc(Oc4ccccc4)cc3)n2)cc1 | 4.2 | 7.92 | 2.48 | 6.23 | 3.75 | 7.1 | 3.49 | 6.87 | 4.31 | 7.99 | 3.78 | 7.5 | 1.73 | 6.89 | 2.1 | 6.42 | 3.94 | 7.71 | 1.95 | 5.74
11 | Nc1cc2ccncc2c2ccccc12 | 13.4 | 34 | 6.89 | 20.8 | 23.9 | > 100 | 16.2 | > 100 | 14.5 | 32.1 | 11.9 | > 100 | 13.9 | 40.4 | 8.56 | 47.9 | 11.1 | 52.5 | 13.5 | 73
12 | Cn1ccnc1C(=O)/C=C/c1ccc(CC(=O)Nc2cc(F)c(F)c(F)c2)cc1 | 1.5 | 4.68 | 2.53 | 7.08 | 1.15 | 4.47 | 1.26 | 5.65 | 3.68 | 8.45 | 1.4 | 8.22 | 10.8 | > 25 | 0.861 | 8.91 | 1.78 | 9.57 | 0.808 | > 25
